pIC50: −log10 of the molar value. Values joined by “and” are separate entries in the source; they are usually repeats but may differ in a detail not shown here. Identical values can stand only once.
System: MPNST complex spheroid with HUVEC/MSC, growth, % test/control
Assay: Anticancer human tumor MPNST cell line growth inhibition [Asc];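 further: compounds left on spheroids for seven days before reading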
Conditions: for viability, T/C: stronger effect = lower value
Summary of the method: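 Stromal components (HUVEC and hMSC) are co-assembled with the cancer cells into multicellular spheroids. Drugs are then added singly or paired, at concentrations falling by half-log increments from a clinically achievable maximum, capped at 10 microM without known Cmax.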

[1] = curve of first compound, second compound 0.1 µM
[2] = curve of first compound, second compound 0.316 µM
[3] = curve of first compound, second compound 1 µM
[4] = second compound 0.1 µM, first compound 0.00949 µM
[5] = second compound 0.1 µM, first compound 0.03 µM
[6] = second compound 0.1 µM, first compound 0.0949 µM
[7] = second compound 0.1 µM, first compound 0.3 µM
[8] = second compound 0.316 µM, first compound 0.00949 µM
[9] = second compound 0.316 µM, first compound 0.03 µM
[10] = second compound 0.316 µM, first compound 0.0949 µM
[11] = second compound 0.316 µM, first compound 0.3 µM
[12] = second compound 1 µM, first compound 0.00949 µM
[13] = second compound 1 µM, first compound 0.03 µM
[14] = second compound 1 µM, first compound 0.0949 µM
[15] = second compound 1 µM, first compound 0.3 µM

Question: How did the pIC50 (curve of first compound, second compound 0.00316 µM) turn out when `CCN1C(C(=O)NC23CCC(C(=O)O)(CC2)CC3)C(c2cccc(Cl)c2F)C2(C(=O)Nc3cc(Cl)ccc32)C12CCCCC2` (centres undefined) + CNC(C)C(=O)NC1CN(S(=O)(=O)c2cccc(S(=O)(=O)N3CCC4CCC(C(=O)NC(c5ccccc5)c5ccccc5)N4C(=O)C(NC(=O)C(C)NC)C3)c2)CCC2CCC(C(=O)NC(c3ccccc3)c3ccccc3)N2C1=O was run?
Answer: < 5.52

Question: What about the pIC50 (curve of first compound, second compound 0.01 µM) of the same compound?
Answer: < 5.52

Question: What about the pIC50 (curve of first compound, second compound 0.0316 µM) of the same compound?
Answer: < 5.52

Question: What about the pIC50 [1] of the same compound?
Answer: < 5.52

Question: What about the pIC50 [2] of the same compound?
Answer: < 5.52

Question: And the pIC50 [3]?
Answer: < 5.52

Question: What about the viability, T/C (second compound 0.00316 µM, first compound 0.00949 µM) of the same compound?
Answer: 98.4%

Question: And the viability, T/C (second compound 0.00316 µM, first compound 0.03 µM)?
Answer: 64.1%

Question: What about the viability, T/C (second compound 0.00316 µM, first compound 0.0949 µM) of the same compound?
Answer: 79.5%

Question: And the viability, T/C (second compound 0.00316 µM, first compound 0.3 µM)?
Answer: 85.6%

Question: And the viability, T/C (second compound 0.00316 µM, first compound 0.949 µM)?
Answer: 74.1%

Question: What about the viability, T/C (second compound 0.00316 µM, first compound 3 µM) of the same compound?
Answer: 76%

Question: What about the viability, T/C (second compound 0.01 µM, first compound 0.00949 µM) of the same compound?
Answer: 100%

Question: And the viability, T/C (second compound 0.01 µM, first compound 0.03 µM)?
Answer: 106%

Question: What about the viability, T/C (second compound 0.01 µM, first compound 0.0949 µM) of the same compound?
Answer: 86.3%

Question: What about the viability, T/C (second compound 0.01 µM, first compound 0.3 µM) of the same compound?
Answer: 64.1%

Question: What about the viability, T/C (second compound 0.01 µM, first compound 0.949 µM) of the same compound?
Answer: 78.9%

Question: What about the viability, T/C (second compound 0.01 µM, first compound 3 µM) of the same compound?
Answer: 63.4%

Question: What about the viability, T/C (second compound 0.0316 µM, first compound 0.00949 µM) of the same compound?
Answer: 87.2%

Question: What about the viability, T/C (second compound 0.0316 µM, first compound 0.03 µM) of the same compound?
Answer: 66.3%

Question: What about the viability, T/C (second compound 0.0316 µM, first compound 0.0949 µM) of the same compound?
Answer: 69.3%

Question: What about the viability, T/C (second compound 0.0316 µM, first compound 0.3 µM) of the same compound?
Answer: 70.5%

Question: And the viability, T/C (second compound 0.0316 µM, first compound 0.949 µM)?
Answer: 68.8%

Question: What about the viability, T/C (second compound 0.0316 µM, first compound 3 µM) of the same compound?
Answer: 68.1%

Question: What about the viability, T/C [4] of the same compound?
Answer: 92.9%

Question: What about the viability, T/C [5] of the same compound?
Answer: 77.7%

Question: What about the viability, T/C [6] of the same compound?
Answer: 70.3%

Question: What about the viability, T/C [7] of the same compound?
Answer: 80.6%

Question: And the viability, T/C (second compound 0.1 µM, first compound 0.949 µM)?
Answer: 58.5%

Question: And the viability, T/C (second compound 0.1 µM, first compound 3 µM)?
Answer: 64.6%

Question: What about the viability, T/C [8] of the same compound?
Answer: 68.8%

Question: And the viability, T/C [9]?
Answer: 71.5%

Question: What about the viability, T/C [10] of the same compound?
Answer: 86%

Question: What about the viability, T/C [11] of the same compound?
Answer: 68.2%

Question: And the viability, T/C (second compound 0.316 µM, first compound 0.949 µM)?
Answer: 68.1%

Question: What about the viability, T/C (second compound 0.316 µM, first compound 3 µM) of the same compound?
Answer: 62.1%

Question: What about the viability, T/C [12] of the same compound?
Answer: 97%

Question: And the viability, T/C [13]?
Answer: 68.2%

Question: What about the viability, T/C [14] of the same compound?
Answer: 87.7%

Question: What about the viability, T/C [15] of the same compound?
Answer: 65.3%

Question: What about the viability, T/C (second compound 1 µM, first compound 0.949 µM) of the same compound?
Answer: 65.6%

Question: What about the viability, T/C (second compound 1 µM, first compound 3 µM) of the same compound?
Answer: 70.2%

Question: Which results are given for `NC(=O)C(=Cn1cnc(-c2cc(C(F)(F)F)cc(C(F)(F)F)c2)n1)c1cncnc1` + Cc1c(S(C)(=O)=O)c(-c2cc(F)cc(N3CCN(c4ccc(NS(=O)(=O)c5ccc(NC(CCN6CCC(C(=O)OCCCP(=O)(O)O)CC6)CSc6ccccc6)c(S(=O)(=O)C(F)(F)F)c5)cc4)CC3)c2)c(-c2ccc(Cl)cc2)n1C(C)C?
Answer: pIC50 [1]: < 6.52; pIC50 [2]: 6.76; pIC50 [3]: 7.14; pIC50 (curve of first compound, second compound 3.16 µM): 7.43; pIC50 (curve of first compound, second compound 10 µM): 7.12; viability, T/C (second compound 0.1 µM, first compound 0.000949 µM): 56.9%; viability, T/C (second compound 0.1 µM, first compound 0.003 µM): 65.2%; viability, T/C [4]: 59%; viability, T/C [5]: 80.2%; viability, T/C [6]: 66.9%; viability, T/C [7]: 44.9%; viability, T/C (second compound 0.316 µM, first compound 0.000949 µM): 68.9%; viability, T/C (second compound 0.316 µM, first compound 0.003 µM): 80%; viability, T/C [8]: 74.3%; viability, T/C [9]: 64.3%; viability, T/C [10]: 61.5%; viability, T/C [11]: 40.6%; viability, T/C (second compound 1 µM, first compound 0.000949 µM): 78.6%; viability, T/C (second compound 1 µM, first compound 0.003 µM): 75.8%; viability, T/C [12]: 67.9%; viability, T/C [13]: 54.4%; viability, T/C [14]: 50.6%; viability, T/C [15]: 41.5%; viability, T/C (second compound 3.16 µM, first compound 0.000949 µM): 65.3%; viability, T/C (second compound 3.16 µM, first compound 0.003 µM): 78.5%; viability, T/C (second compound 3.16 µM, first compound 0.00949 µM): 70.1%; viability, T/C (second compound 3.16 µM, first compound 0.03 µM): 51.5%; viability, T/C (second compound 3.16 µM, first compound 0.0949 µM): 44.6%; viability, T/C (second compound 3.16 µM, first compound 0.3 µM): 39.3%; viability, T/C (second compound 10 µM, first compound 0.000949 µM): 73.3%; viability, T/C (second compound 10 µM, first compound 0.003 µM): 72.4%; viability, T/C (second compound 10 µM, first compound 0.00949 µM): 65.6%; viability, T/C (second compound 10 µM, first compound 0.03 µM): 58.4%; viability, T/C (second compound 10 µM, first compound 0.0949 µM): 48%; viability, T/C (second compound 10 µM, first compound 0.3 µM): 34.6%

Question: With `C#Cc1c(F)ccc2cc(O)cc(-c3ncc4c(N5CC6CCC(C5)N6)nc(OCC56CCCN5CC(F)C6)nc4c3F)c12` (centres undefined) as the compound, how does the viability, T/C (compound 0.0316 µM) read?
Answer: 76.6% and 93.8% and 88.8%

Question: And the viability, T/C (compound 0.1 µM)?
Answer: 87% and 113% and 69.2%

Question: And the viability, T/C (compound 0.316 µM)?
Answer: 74.9% and 107% and 83.5%

Question: And the viability, T/C (compound 1 µM)?
Answer: 61.2% and 94.7% and 70.7%

Question: What about the viability, T/C (compound 3.16 µM) of the same compound?
Answer: 88% and 93.3% and 87.2%

Question: And the viability, T/C (compound 10 µM)?
Answer: 50% and 97.8% and 110%

Question: And the pIC50 (curve of compound)?
Answer: < 5.00

From PubChem BioAssay AID1963442 (Molecular Pharmacology Branch, DTP, NCI, 2024)
